According to patent US7157222B2, “Method of cryopreservation of tissues by vitrification” (Organ Recovery Systems, Inc., priority 1999, dated 2007):

Legend:
[1] = test system: rabbit jugular vein ring segments; experiment: Maximal contractile response of vein rings in vascular smooth muscle bath; type: cell-based; settings: for Maximal Physiological Responses, Control: fresh vein rings (n = 15); for Maximal Physiological Responses, Control / Maximal Physiological Responses, Vitrified: Mean ± SEM; for Maximal Physiological Responses, % of corresponding fresh controls: vein rings vitrified with VS55 versus fresh vein rings; for Maximal Physiological Responses, Vitrified: vein rings vitrified with vitrification solution VS55 (n = 26)
Protocol: Vein rings, which are about 4 mm long segments of rabbit external jugular veins, are vitrified in VS55 by the method described above for longer external jugular vein segments, except that perfusion is not used. […] The baseline tension of all vein rings is adjusted to 0.25 to 0.75 g. Changes in tension are recorded by force transducers. After 1 hour of equilibration, the vein rings are pretested with potassium chloride for contraction. After rinsing with KH solution, the vein rings are equilibrated for another 30 minutes prior to the start of experiment. During a relaxation experiment, contraction of the vein rings is produced by 10^−6M norepinephrine and, after the contractile response plateaus, cumulative concentrations of acetylcholine (10^−10M to 10^−4M) are added to the bathing medium to induce the endothelium dependent relaxation response. In the current study, histamine, bradykinin, angiotensin II, and norepinephrine are tested in rabbit jugular vein ring segments vitrified with VS55 and fresh vein rings. Both histamine and bradykinin produce contraction in the vein via their local receptors. Norepinephrine acts directly on the adrenoceptor, while angiotensin II binds to AT receptors and acts through local renin-angiotensin systems.

artery ring segments = experiment: Maximal contractile response of artery rings; type: cell-based; settings: for Maximal Physiological Responses, Vitrified: artery rings vitrified with VS55 (norepinephrine n = 37, phenylephrine n = 23); for Maximal Physiological Responses, Vitrified / Maximal Physiological Responses, Control: Mean ± SEM; for Maximal Physiological Responses, % of corresponding fresh controls: artery rings vitrified with VS55 versus fresh controls; for Maximal Physiological Responses, Control: fresh rings (norepinephrine n = 16, phenylephrine n = 12)
Protocol: Vein rings, which are about 4 mm long segments of rabbit external jugular veins, are vitrified in VS55 by the method described above for longer external jugular vein segments, except that perfusion is not used. After being rewarmed, the vein rings are mounted between two stainless steel wire hooks and suspended in a vascular smooth muscle bath containing 5 ml of Krebs Henseleit (KH) solution, which is gassed continuously with 95% O2 and 5% CO2 at 37° C. The baseline tension of all vein rings is adjusted to 0.25 to 0.75 g. Changes in tension are recorded by force transducers. After 1 hour of equilibration, the vein rings are pretested with potassium chloride for contraction. After rinsing with KH solution, the vein rings are equilibrated for another 30 minutes prior to the start of experiment. During a relaxation experiment, contraction of the vein rings is produced by 10^−6M norepinephrine and, after the contractile response plateaus, cumulative concentrations of acetylcholine (10^−10M to 10^−4M) are added to the bathing medium to induce the endothelium dependent relaxation response.
Artery rings are vitrified in VS55 by the method described above for vein rings. After being rewarmed, norepinephrine and phenylephrine are tested in artery ring segments vitrified with VS55 and fresh artery rings.

| Compound | Maximal Physiological Responses, Control [1] [g] | Maximal Physiological Responses, % of corresponding fresh controls [1] [%] | Maximal Physiological Responses, Vitrified [1] [g] | Maximal Physiological Responses, Vitrified (artery ring segments) [g] | Maximal Physiological Responses, % of corresponding fresh controls (artery ring segments) [%] | Maximal Physiological Responses, Control (artery ring segments) [g] |
| --- | --- | --- | --- | --- | --- | --- |
| NC[C@H](O)c1ccc(O)c(O)c1 [Norepinephrine, norepinephrine] | 0.99 ± 0.12 | 83.8 | 0.83 ± 0.14 | 2.58 ± 0.23 | 90.8 | 2.84 ± 0.38 |
| CNC[C@H](O)c1cccc(O)c1 [Phenylephrine, phenylephrine] | – | – | – | 2.23 ± 0.29 | 88.3 | 2.53 ± 0.45 |
| angiotensin II (DRVYIHPF; Angiotensin-2; UniProt P01019 25-32, looked up) | 0.58 ± 0.06 | 84.5 | 0.49 ± 0.09 | – | – | – |
| NCCc1c[nH]cn1 [Histamine, histamine] | 1.78 ± 0.19 | 87.1 | 1.55 ± 0.27 | – | – | – |
